# Biological target: T1, CBR1 (Arabidopsis thaliana, UniProt Q9ZNT1)
# T1 sequence (Q9ZNT1 1-281): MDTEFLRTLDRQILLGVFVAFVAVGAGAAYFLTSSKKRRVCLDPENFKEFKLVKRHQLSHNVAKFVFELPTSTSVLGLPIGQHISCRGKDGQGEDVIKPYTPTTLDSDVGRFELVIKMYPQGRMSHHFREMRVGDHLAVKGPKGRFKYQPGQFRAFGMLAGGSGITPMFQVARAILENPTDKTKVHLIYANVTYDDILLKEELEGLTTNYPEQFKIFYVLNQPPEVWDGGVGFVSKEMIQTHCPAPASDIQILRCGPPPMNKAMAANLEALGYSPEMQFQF
# T1 sequence (O22704 22-121 partner limits assumed): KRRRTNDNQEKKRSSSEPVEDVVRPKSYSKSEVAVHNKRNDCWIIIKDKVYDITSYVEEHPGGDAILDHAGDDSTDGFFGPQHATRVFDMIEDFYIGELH
# Assay: reduction of recombinant CB5LP followed by Soret shift
# Type: biochemical
# Details: 100 uM NADH, 9 uM CB5LP as electron acceptor, Tris-HCl pH 7.5, room temperature
compound,measurement,value
NC(=O)C1=CN([C@@H]2O[C@H](COP(=O)(O)OP(=O)(O)OC[C@H]3O[C@@H](n4cnc5c(N)ncnc54)[C@H](O)[C@@H]3O)[C@@H](O)[C@H]2O)C=CC1 [NADH],reduction of recombinant CB5LP followed by Soret shift,CB5LP was effectively reduced by CBR1 in the presence of NADH

# Source: publication PMC13155568, “A plant-specific cytochrome b5–like protein is essential for phytosterol biosynthesis” (Science Advances, 2025)
